# Assay results from patent US11952344B2, “Heterocyclic compound and use thereof” (TAKEDA PHARMACEUTICAL COMPANY LIMITED, priority 2019, dated 2024).
# Molecular target: T1, Human NMDA (NR1/NR2B) Receptor (Homo sapiens, UniProt Q13224)
# T1 construct: host or cells: HEK293
# Assay: NR2B Ca2+ influx assay
# Format: cell-based
# Conditions: 10 μM compound; HEK293 cells expressing GRIN1 and GRIN2B; glutamic acid/glycine-induced Ca2+ influx, Fluo-4 fluorescence; read-out: inhibitory rate (10 μM compound concentration)
# Excerpt: Experimental Example 1 NR2B Ca^2+ Influx Assay
# To confirm the “antagonistic action on an NMDA receptor containing the NR2B subunit” of the compound of the present invention, human embryonic kidney cell expressing the “NMDA receptor composed of four subunits including 2 sets of heterodimers of NR1 and NR2B”, specifically HEK293 cell expressing human glutamate ionotropic receptor NMDA type subunit 1 (GRIN1) and human glutamate ionotropic receptor NMDA type subunit 2B (GRIN2B), was used and the activation suppressive effect (inhibitory activity) on the receptors by the compound of the present invention was measured.
# HEK293 cells that express GRIN1 and GRIN2B were purchased from ChanTest (Human NMDA (NR1/NR2B) Receptor-expressing, stable replicating cell line (HEK293) catalog No. CT6121).
# As an index of the NMDA receptor activation, intracellular calcium ion (Ca^2+) influx caused by the binding of glycine and glutamic acid with NR1 and NR2B, respectively, was used.
# HEK293 cells that express GRIN1 and GRIN2B were cultured in a cell culture flask in DMEM/F-12 (COSMO BIO, 10-092-CM) medium added with 10% FBS (fetal bovine serum, AusGene), 100 units/mL penicillin, 100 μg/mL streptomycin, 500 μg/mL neomycin, 100 μg/mL Zeocin (registered trade mark, Invitrogen), 5 μg/mL Blasticidin, in an incubator (37° C., 5% CO2).
# The cells were detached from flask with trypsin the day before the assay, suspended in a seeding medium (DMEM (Invitrogen, 31053) added with 10% FBS, 100 units/mL penicillin, 100 μg/mL streptomycin) at 8×10^5 cells/mL, seeded by 25 μL/well in a 384-well plate (Falcon, 356663) at 20000 cells/well, and cultured overnight in an incubator. On the day of the assay, tetracycline (Wako Pure Chemical Industries, Ltd., 209-16561) was diluted with the seeding medium at 2 μg/mL, added at 25 μL/well to the plate seeded with the cells, and cultured for 2 hr in an incubator. Thereafter, the medium was removed, and the cells were washed with 50 μL/well assay buffer (137 mM NaCl, 4 mM KCl, 1.8 mM CaCl2, 10 mM HEPES (pH 7.2), 10 mM Glucose, 0.1% BSA). Then, a loading buffer (assay buffer added with 2.5 μM Fluo-4AM, 2 mM Amaranth, 1 mM Tartrazine) was added at 25 μL/well, and incubation was performed in the incubator for 30 min, and at room temperature for 15 min. A solution (25 μL/well) of the Example compound diluted with the above-mentioned assay buffer at 30 μM (final concentration 10 μM) was added, and the cells were stood for 15 min at room temperature. Using FDSS7000EX/μCELL (Hamamatsu Photonics K.K.), 25 μL/well of an assay buffer containing 30 μM glutamic acid, 30 μM glycine was added, and the fluorescence signal at wavelength of Excitation 480 nm, Emission 540 nm was measured every 3 seconds for 5 min. The inhibitory activity was calculated as a relative activity value (inhibitory rate) that inhibits 100% of the cumulative value of the fluorescence value of a well added with an assay buffer free of glutamic acid, glycine, relative to the cumulative value of the fluorescence value of each well.
# T1 sequence (Q13224 27-1484, other chains not shown): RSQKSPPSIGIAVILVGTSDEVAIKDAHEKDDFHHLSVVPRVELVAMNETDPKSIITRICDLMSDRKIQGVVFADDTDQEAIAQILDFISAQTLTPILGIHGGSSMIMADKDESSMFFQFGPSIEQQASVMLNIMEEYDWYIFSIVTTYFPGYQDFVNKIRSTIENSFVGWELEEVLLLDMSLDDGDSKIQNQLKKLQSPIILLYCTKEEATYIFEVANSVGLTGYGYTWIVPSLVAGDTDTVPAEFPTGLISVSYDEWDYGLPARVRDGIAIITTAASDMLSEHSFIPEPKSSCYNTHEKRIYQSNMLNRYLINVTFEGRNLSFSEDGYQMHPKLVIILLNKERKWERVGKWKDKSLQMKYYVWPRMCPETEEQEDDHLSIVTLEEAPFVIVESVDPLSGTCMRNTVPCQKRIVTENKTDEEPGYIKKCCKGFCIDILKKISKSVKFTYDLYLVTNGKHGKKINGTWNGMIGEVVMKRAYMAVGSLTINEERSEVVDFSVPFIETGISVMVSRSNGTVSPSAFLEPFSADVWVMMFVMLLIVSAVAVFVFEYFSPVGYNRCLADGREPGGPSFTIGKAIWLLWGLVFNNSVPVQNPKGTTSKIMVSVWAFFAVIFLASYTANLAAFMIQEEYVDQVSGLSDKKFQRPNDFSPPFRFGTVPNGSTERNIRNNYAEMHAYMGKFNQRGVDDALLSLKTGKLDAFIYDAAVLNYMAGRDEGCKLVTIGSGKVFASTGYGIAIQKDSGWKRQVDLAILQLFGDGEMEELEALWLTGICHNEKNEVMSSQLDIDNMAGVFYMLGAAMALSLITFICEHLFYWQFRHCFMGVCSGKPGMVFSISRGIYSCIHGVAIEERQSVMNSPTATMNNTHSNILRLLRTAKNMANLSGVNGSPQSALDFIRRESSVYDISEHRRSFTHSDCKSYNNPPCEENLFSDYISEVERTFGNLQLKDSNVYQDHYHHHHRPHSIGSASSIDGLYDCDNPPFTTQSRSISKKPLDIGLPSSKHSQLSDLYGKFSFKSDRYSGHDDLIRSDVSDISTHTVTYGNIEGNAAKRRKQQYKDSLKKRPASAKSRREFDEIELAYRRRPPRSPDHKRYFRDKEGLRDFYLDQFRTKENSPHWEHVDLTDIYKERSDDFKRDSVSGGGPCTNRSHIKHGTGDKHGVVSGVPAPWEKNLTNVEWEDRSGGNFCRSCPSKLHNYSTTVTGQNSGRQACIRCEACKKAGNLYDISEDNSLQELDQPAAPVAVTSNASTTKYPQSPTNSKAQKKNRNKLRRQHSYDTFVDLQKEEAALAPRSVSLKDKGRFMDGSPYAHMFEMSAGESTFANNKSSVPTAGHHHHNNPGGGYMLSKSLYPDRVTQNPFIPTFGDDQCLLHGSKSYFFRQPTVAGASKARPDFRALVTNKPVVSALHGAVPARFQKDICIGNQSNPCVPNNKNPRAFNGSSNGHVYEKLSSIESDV
row,SMILES,inhibition at 10 µM
1,"Cc1c(F)cncc1CNC(=O)c1cc(F)c(OC(F)F)c(F)c1 [Example 68, 4-(difluoromethoxy)-3,5-difluoro-N-[(5-fluoro-4-methylpyridin-3-yl)methyl]benzamide]",93%
2,"COc1c(F)cc(C(=O)NCc2cncc(F)c2C)cc1F [Example 67, 3,5-difluoro-N-[(5-fluoro-4-methylpyridin-3-yl)methyl]-4-methoxybenzamide]",92%
3,"O=C(NCc1cncnc1OC1CC1)c1cnc(OC(F)F)c(F)c1 [Example 19, N-{[4-(cyclopropyloxy)pyrimidin-5-yl]methyl}-6-(difluoromethoxy)-5-fluoropyridine-3-carboxamide]",91%
4,"Cc1ccncc1CNC(=O)c1csc(C2CC2)c1 [Example 56, 5-cyclopropyl-N-[(4-methylpyridin-3-yl)methyl]thiophene-3-carboxamide]",93%
5,"O=C(NCc1cncnc1OC1CC1)c1ccc(OC(F)F)c(F)c1 [Example 77, N-{[4-(cyclopropyloxy)-pyrimidin-5-yl]methyl}-4-(difluoromethoxy)-3-fluorobenzamide]",94%
6,"CCOc1ncc(C(=O)NCc2cncnc2OC)cc1Cl [Example 85, 5-chloro-6-ethoxy-N-[(4-methoxypyrimidin-5-yl)methyl]pyridine-3-carboxamide]",87%
7,"CCOc1ncncc1CNC(=O)c1cc(F)c(OC(F)F)c(F)c1 [Example 87, 4-(difluoromethoxy)-N-[(4-ethoxypyrimidin-5-yl)methyl]-3,5-difluorobenzamide]",93%
8,"O=C(NCc1cncc(Br)c1)c1ccc(OC(F)(F)F)cc1 [Example 3, N-[(5-bromopyridin-3-yl)methyl]-4-(trifluoromethoxy)benzamide]",95%
9,"O=C(NCc1cncnc1C1CC(F)(F)C1)c1cnc(OC(F)F)c(F)c1 [Example 36, N-{[4-(3,3-difluorocyclobutyl)-pyrimidin-5-yl]methyl}-6-(difluoromethoxy)-5-fluoropyridine-3-carboxamide]",92%
10,"CCOc1ncc(C(=O)NCc2cnccc2C)cc1Cl [Example 65, 5-chloro-6-ethoxy-N-[(4-methylpyridin-3-yl)methyl]pyridine-3-carboxamide]",93%
11,"O=C(NCc1cncnc1OC1CC1)c1cc(F)c(OC(F)F)c(F)c1 [Example 76, N-{[4-(cyclopropyloxy)-pyrimidin-5-yl]methyl}-4-(difluoromethoxy)-3,5-difluorobenzamide]",95%
12,"O=C(NCc1cncnc1OC1CC1)c1cnc(C2CC2)c(F)c1 [Example 81, 6-cyclopropyl-N-{[4-(cyclopropyloxy)-pyrimidin-5-yl]methyl}-5-fluoropyridine-3-carboxamide]",90%
13,"Cc1ccncc1CNC(=O)c1ccc(OC(F)F)cc1 [Example 50, 4-(difluoromethoxy)-N-[(4-methylpyridin-3-yl)methyl]benzamide]",90%
14,"O=C(NCc1cnccc1OC(F)F)c1cnc(OC(F)F)c(F)c1 [Example 99, 6-(difluoromethoxy)-N-{[4-(difluoromethoxy)pyridin-3-yl]methyl}-5-fluoropyridine-3-carboxamide]",89%
15,"Cc1ccncc1CNC(=O)c1cnc(C2CC2(F)F)c(Cl)c1 (centres unmarked) [Example 102, 5-chloro-6-(2,2-difluorocyclopropyl)-N-[(4-methylpyridin-3-yl)methyl]pyridine-3-carboxamide]",93%
16,"Cc1c(F)cncc1CNC(=O)c1cnc(C(C)(F)F)c(F)c1 [Example 94, 6-(1,1-difluoroethyl)-5-fluoro-N-[(5-fluoro-4-methylpyridin-3-yl)methyl]pyridine-3-carboxamide]",91%

row,SMILES,inhibition at 10 µM
1,"CCc1ccncc1CNC(=O)c1cnc(OC(F)F)c(F)c1 [Example 38, 6-(difluoromethoxy)-N-[(4-ethylpyridin-3-yl)methyl]-5-fluoropyridine-3-carboxamide]",94%
2,"Cc1ccncc1CNC(=O)c1cnc(OC(F)F)c(F)c1 [Example 18, 6-(difluoromethoxy)-5-fluoro-N-[(4-methylpyridin-3-yl)methyl]pyridine-3-carboxamide]",96%
3,"CCOc1ncncc1CNC(=O)c1cc(F)c(OC)c(F)c1 [Example 86, N-[(4-ethoxypyrimidin-5-yl)methyl]-3,5-difluoro-4-methoxybenzamide]",90%
4,"Cc1c(F)cncc1CNC(=O)c1cnc(OC(F)F)c(F)c1 [Example 40, 6-(difluoromethoxy)-5-fluoro-N-[(5-fluoro-4-methylpyridin-3-yl)methyl]pyridine-3-carboxamide]",96%
5,"Cc1ccncc1CNC(=O)c1ccc(C(F)F)c(F)c1 [Example 58, 4-(difluoromethyl)-3-fluoro-N-[(4-methylpyridin-3-yl)methyl]benzamide]",85%
6,"CC(F)(F)c1ncc(C(=O)NCc2cncnc2OC2CC2)cc1F [Example 91, N-{[4-(cyclopropyloxy)-pyrimidin-5-yl]methyl}-6-(1,1-difluoroethyl)-5-fluoropyridine-3-carboxamide]",91%
7,"CCOc1c(F)cncc1CNC(=O)c1cnc(OC(F)F)c(F)c1 [Example 61, 6-(difluoromethoxy)-N-[(4-ethoxy-5-fluoropyridin-3-yl)methyl]-5-fluoropyridine-3-carboxamide]",95%
8,"Cc1ccncc1CNC(=O)c1ccc(C(F)(F)F)c(F)c1 [Example 53, 3-fluoro-N-[(4-methylpyridin-3-yl)methyl]-4-(trifluoromethyl)-benzamide]",91%
9,"COc1ccncc1CNC(=O)c1ccc(OC(F)(F)F)c(F)c1 [Example 8, 3-fluoro-N-[(4-methoxypyridin-3-yl)methyl]-4-(trifluoromethoxy)-benzamide]",95%
10,"Cc1ccncc1CNC(=O)c1cnc(C2CC2(F)F)c(F)c1 (centres unmarked) [Example 101, 6-(2,2-difluorocyclopropyl)-5-fluoro-N-[(4-methylpyridin-3-yl)methyl]pyridine-3-carboxamide]",90%
11,"CCOc1ncc(C(=O)NCc2cncnc2OC2CC2)cc1F [Example 75, N-{[4-(cyclopropyloxy)-pyrimidin-5-yl]methyl}-6-ethoxy-5-fluoropyridine-3-carboxamide]",93%
12,"Cc1ccncc1CNC(=O)c1ccc(OC(F)F)c(F)c1 [Example 48, 4-(difluoromethoxy)-3-fluoro-N-[(4-methylpyridin-3-yl)methyl]benzamide]",88%
13,"Cc1ccncc1CNC(=O)c1ccc(C(F)(F)F)s1 [Example 64, N-[(4-methylpyridin-3-yl)methyl]-5-(trifluoromethyl)thiophene-2-carboxamide]",85%
14,"COc1ccncc1CNC(=O)c1ccc(OC(F)(F)F)cc1 [Example 7, N-[(4-methoxypyridin-3-yl)methyl]-4-(trifluoromethoxy)benzamide]",91%
15,"COc1ncncc1CNC(=O)c1csc(C2CC2)c1 [Example 79, 5-cyclopropyl-N-[(4-methoxypyrimidin-5-yl)methyl]thiophene-3-carboxamide]",89%
16,"Cc1ncncc1CNC(=O)c1cnc(OC(F)F)c(F)c1 [Example 31, 6-(difluoromethoxy)-5-fluoro-N-[(4-methylpyrimidin-5-yl)methyl]pyridine-3-carboxamide]",68%
